# Experimental data taken from article PMC7938888, “Antidepressant drugs act by directly binding to TRKB neurotrophin receptors” (Cell, 2021).
# B1: BDNF: brain-derived neurotrophic factor, TRKB ligand (protein, UniProt P23560 19-247, looked up)
# Neurotrophic factor BDNF …: APMKEANIRGQGGLAYPGVRTHGTLESVNGPKAGSRGLTSLADTFEHVIEELLDEDQKVRPNEENNKDADLYTSRVMLSSQVPLEPPLLFLLEEYKNYLDAANMSMRVRRHSDPARRGELSVCDSISEWVTAADKKTAVDMSGGTVTVLEKVPVSKGQLKQYFYETKCNPMGYTKEGCRGIDKRHWNSQCRTTQSYVRALTMDSKKRIGWRFIRIDTSCVCTLTIKRGR
# How the values were obtained:
# GFP-TRKB = assay: dSTORM/TIRF of GFP-TRKB clusters on MG87.TRKB cells; assay type: cell-based, mouse; settings: BDNF 10 ng/ml, FLX 10 μM, CHOL 20 μM, KET 10 μM; 15 min
# Description: For direct stochastic optical reconstruction microscopy (dSTORM) MG87.TRKB cells were grown on cell view 35mm dishes with glass bottom (Greiner) coated with poly-L-lysine (Sigma). […] Briefly, cells were fixed 24 hours post transfection with 4% PFA for 20 minutes, washed three times for 5 min with 1x PBS and incubated in blocking buffer (1% BSA, 0.1% gelatin, 5% goat serum, 0.1% Triton X-100 and 0.05% Tween-20 in PBS; all from Sigma) for 1 hour. The primary antibody against GFP (Abcam, #ab290) was diluted 1:100 and incubated overnight at +4°C, while the secondary antibody Alexa Fluor-conjugated goat-anti-rabbit 647 (Invitrogen) was diluted 1:500 and incubated at room temperature for 1 hour. The dishes were stored in +4°C in 1x PBS no longer than 48 hours before imaging.
# During imaging, cells were maintained in blinking buffer (10% glucose, 0.07% cysteamine, 0.75 mg/ml glucose oxidase and 0.04 mg/ml catalase in 0.1 M Tris buffer, pH 7.8-8; all reagents from Sigma-Aldrich), which was freshly prepared and changed every hour. Imaging was performed in TIRF mode (TIRF angle 89.3 calibrated with ring-TIRF at least twice per sample) to specifically image the fluorophores at the plasma membrane. A GE DeltaVision OMX SR system (GE Healthcare) equipped with an Apo N 60x/1.49 oil objective and a sCMOS camera was used to acquire the images. The 640 nm diode laser was used at 100% of power to excite the Alexa 647 fluorophores while the 405 nm laser was adjusted until approximately 50% of power in order to maintain the blinking throughout the imaging session. For each cell, 35000 frames were acquired, and the localization map of single fluorophores was reconstructed with SoftWoRx 7.0 software (GE Healthcare). For the localization map, the first 1000 frames approximately were discarded and the reconstruction parameters were maintained identical for all the samples.
# Reconstruction parameters: For the localization of all the blinking events in the dataset, the point spread function size factor was set at 1.550 with a local maximum factor of 0.05. Drift correction was adjusted dividing the frames into 20 groups. Tracking of the fluorophores was performed with a maximum localization precision of 100 nm without fiducial markers. The final localization map of the fluorophores identified was built with a reconstruction pixel size of 10 nm and localization precision set at 5 and 100 nm respectively for the minimum and the maximum, and a fluorophore persistence threshold set at 3 frames.
# The analysis of the reconstructed images was performed in Fiji. Depending on the size of picture, 5 or 10 representative regions of interest (ROIs) of 2x1 μm were blindly chosen per cell and used for particle analysis of the TRKB-positive clusters. […]
# E18 cortical cells = assay: Cell viability (CellTiterGlo) of cortical cells; assay type: cell-based, rat; settings: pravastatin 2 μM/5 days; CHOL 20 μM or BDNF 10 ng/ml, 5 days
# Description: The cell viability assay was performed using CellTiterGlo (#G7571; Promega) according to manufacturer’s instructions. Briefly, equal amounts of medium and the mixture of regents A and B were added to the E18 cortical cells (DIV8) cultivated in clear bottom 96-well plates and incubated for 40min. The luminescence was analyzed in a plate reader.
# [1] = system: TRKB autophosphorylation (TRKB:pY); assay: TRKB:pY ELISA in cultured cortical cells; assay type: cell-based, rat; settings: for effect on TRKB phosphorylation (pTRKB) by BDNF: BDNF 10 ng/mL, primary cortical neurons
# Description: The TRKB:pY (phosphorylated TRKB), TRKB:PLC-γ1, PLC-γ1:pTRKB.Y816 interactions and were determined by ELISA, based on the general method described in literature ([Antila et al., 2014]; [Fred et al., 2019]), with minor adjustments. Briefly, white 96-well plates (OptiPlate 96F-HB, Perkin Elmer) were coated with capturing anti-TRKB or PLC-γ1 antibody (1:1000) in carbonate buffer (pH = 9.8) overnight (ON) at 4°C. Following a blocking step with 2%BSA in TBS-T (2 h, RT), samples were incubated ON at 4°C. The incubation with antibody against pTRKB.Y816, PLC-γ1 or pY (1:2000, ON, 4°C) was followed by HRP-conjugated anti-Rb IgG (1:5000, 2h, RT) or HRP-conjugated streptavidin (1:10000, 2h, RT). Finally, the chemiluminescent signal generated by the reaction with ECL was analyzed in a plate reader (Varioskan Flash, Thermo Scientific).
# TRKB = TRKB (Mus musculus, UniProt P15209); assay: Cell-free ligand binding assay on immobilised TRKB from HEK293T lysates; parameters: wild-type GFP-tagged full length TRKB or the GFP-tagged Y433F TRKB mutant; host or cells: HEK293T; settings: for displacement of biotinylated FLX from TRKB: biotinylated FLX 1 μM
# Sequence of TRKB (P15209 32-821): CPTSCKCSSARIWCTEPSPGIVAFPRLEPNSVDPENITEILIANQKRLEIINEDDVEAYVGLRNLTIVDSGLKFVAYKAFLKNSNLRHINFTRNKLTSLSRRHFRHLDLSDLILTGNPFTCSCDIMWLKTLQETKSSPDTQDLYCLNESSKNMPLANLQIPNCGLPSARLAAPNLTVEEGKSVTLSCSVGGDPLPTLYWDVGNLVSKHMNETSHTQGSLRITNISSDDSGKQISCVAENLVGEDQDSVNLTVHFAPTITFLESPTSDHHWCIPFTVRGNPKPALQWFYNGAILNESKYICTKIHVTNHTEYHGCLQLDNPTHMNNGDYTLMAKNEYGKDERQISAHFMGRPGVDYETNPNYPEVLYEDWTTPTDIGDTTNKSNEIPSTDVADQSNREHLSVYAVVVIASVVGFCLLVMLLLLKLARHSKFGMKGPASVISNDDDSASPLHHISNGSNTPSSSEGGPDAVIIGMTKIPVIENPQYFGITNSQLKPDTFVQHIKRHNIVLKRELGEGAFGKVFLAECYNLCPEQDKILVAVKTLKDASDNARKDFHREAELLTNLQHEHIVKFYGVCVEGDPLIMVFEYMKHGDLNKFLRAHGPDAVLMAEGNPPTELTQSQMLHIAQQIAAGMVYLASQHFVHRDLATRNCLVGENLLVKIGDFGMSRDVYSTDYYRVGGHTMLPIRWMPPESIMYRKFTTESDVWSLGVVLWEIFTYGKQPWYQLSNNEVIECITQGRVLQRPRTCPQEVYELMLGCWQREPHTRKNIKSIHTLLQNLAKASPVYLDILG
# mice = assay: Contextual fear conditioning and extinction; assay type: in vivo, mouse
# Description: Contextual fear conditioning: this test was modified from previous studies ([Karpova et al., 2011]). Briefly, adult male and female mice (18-22 weeks old) were conditioned to 5 scrambled foot shocks (0.6mA/2 s) during the 8 min session (arena: 23 × 23 × 35cm) under constant illumination (100 lux). During the extinction trials, the animals were exposed to the same context where the shocks were delivered and the time spent in freezing during the 8 min session was automatically determined by the software (TSE Systems, Germany).
# [2] = wild-type mice, FLX 15 mg/kg for 2 weeks, KET 10 mg/kg i.p. after conditioning and 2 h before each extinction trial
molecule,measurement,setting,value
"CC(C)CCC[C@@H](C)[C@H]1CC[C@H]2[C@@H]3CC=C4C[C@@H](O)CC[C@]4(C)[C@H]3CC[C@]12C [CHOL, cholesterol]",size of clusters formed by wild-type GFP-TRKB at the plasma membrane,GFP-TRKB,increased the size of clusters
same,rescue of pravastatin-reduced neuronal survival,E18 cortical cells,rescued
same,effect on TRKB phosphorylation (pTRKB) by BDNF,[1]; CHOL 20 μM,enhanced TRKB phosphorylation
same,effect on TRKB phosphorylation (pTRKB) by BDNF,[1]; CHOL 50–100 μM,suppressed the effects of BDNF
same,"effect on interaction of biotinylated FLX and R,R-HNK with TRKB",TRKB,increased the interaction of these compounds with TRKB
"CNC1(c2ccccc2Cl)CCCCC1=O (stereo not shown) [KET, ketamine]",size of clusters formed by wild-type GFP-TRKB at the plasma membrane,GFP-TRKB,increased the size of clusters
same,extinction of conditioned fear,mice; TRKB.Y433F mice,no increase in fear extinction
same,extinction of conditioned fear,mice; [2],promoted extinction of conditioned fear
same,Ki,TRKB,12.3 µM
same,displacement of biotinylated FLX from TRKB,TRKB,readily displaced
"CNCCC(Oc1ccc(C(F)(F)F)cc1)c1ccccc1 (stereo not shown) [FLX, fluoxetine]",size of clusters formed by wild-type GFP-TRKB at the plasma membrane,GFP-TRKB,increased the size of clusters
same,extinction of conditioned fear,mice; TRKB.Y433F mice,no increase in fear extinction
same,extinction of conditioned fear,mice; pravastatin-FLX co-treated mice,no increase in fear extinction
same,extinction of conditioned fear,mice; [2],promoted extinction of conditioned fear
same,rescue of BDNF-induced pTRKB response under high CHOL,"[1]; cholesterol 50 μM, drug 10 μM 15 min, BDNF 10 ng/ml 15 min",partially rescued
B1,size of clusters formed by wild-type GFP-TRKB at the plasma membrane,GFP-TRKB,increased the size of clusters
same,rescue of pravastatin-reduced neuronal survival,E18 cortical cells,not by BDNF
same,Kd,"TRKB; TRKB.wt, read-out: binding affinity of BDNF",3.1 pM
same,displacement of biotinylated FLX from TRKB,TRKB,failed to displace
